From patent US20200237766A1, “PKM2 ACTIVATORS IN COMBINATION WITH REACTIVE OXYGEN SPECIES FOR TREATMENT OF CANCER” (TOLERO PHARMACEUTICALS, INC., priority 2017, published 2020)
Like-named read-outs stand apart in the source and are kept apart here.

Biological target: PKM2 (Homo sapiens, UniProt P14618)
Assay: PKM2 activation biochemical assay (AC50 / max. response vs fructose 1,6-bisphosphate)
Details: for Max. Resp. (%): % maximum response in a biochemical assay as compared with Fructose 1,6-bisphosphate
[1] = biochemical assay, read-out: PKM2 AC50

Sequence of PKM2 (P14618 whole entry): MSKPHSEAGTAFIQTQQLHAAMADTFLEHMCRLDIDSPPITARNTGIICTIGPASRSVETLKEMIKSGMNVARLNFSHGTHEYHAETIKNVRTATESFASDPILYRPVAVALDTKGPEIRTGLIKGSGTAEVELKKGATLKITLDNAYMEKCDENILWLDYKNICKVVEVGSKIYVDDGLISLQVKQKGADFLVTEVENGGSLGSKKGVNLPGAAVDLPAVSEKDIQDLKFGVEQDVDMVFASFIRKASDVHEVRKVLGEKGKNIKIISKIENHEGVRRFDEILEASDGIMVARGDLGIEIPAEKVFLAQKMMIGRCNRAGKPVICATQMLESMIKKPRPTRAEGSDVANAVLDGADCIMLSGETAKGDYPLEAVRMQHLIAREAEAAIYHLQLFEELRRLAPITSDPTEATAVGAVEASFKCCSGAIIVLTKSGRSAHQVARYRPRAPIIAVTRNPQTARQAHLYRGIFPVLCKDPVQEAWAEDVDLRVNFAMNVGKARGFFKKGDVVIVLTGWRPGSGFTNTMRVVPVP

Structure (SMILES)	AC50 [nM]	Max. Resp. (%)	AC50 [1] [nM]
O=C(c1cc(C(F)(F)F)n[nH]1)N(CCC1CCS(=O)(=O)C1)Cc1ccccc1Cl (centres unmarked) [Compound 62]	273	105	–
O=C(c1cc(C(F)(F)F)n[nH]1)N(CCC1CCS(=O)(=O)C1)Cc1cc(F)cc(F)c1 (centres unmarked) [Compound 69]	–	74	1830
CCCN(CC)CCN(Cc1c(N)cccc1F)C(=O)c1cc(C(F)(F)F)n[nH]1 [Compound 240]	–	100	68
O=C(c1cc(C(F)(F)F)n[nH]1)N(CCC1CCS(=O)(=O)C1)Cc1c(Cl)cccc1Cl (centres unmarked) [Compound 64]	–	71	3780
O=C(c1cc(C(F)(F)F)n[nH]1)N(CCC1CCOC1)Cc1c(Cl)cccc1Cl (centres unmarked) [Compound 33]	–	81	4030
O=C(c1cc(C(F)(F)F)n[nH]1)N(Cc1cccc2[nH]ccc12)CC1CCC1 [Compound 6]	–	100	–
CC1CC(C)CN(CCN(Cc2ccccc2Cl)C(=O)c2cc(C(F)(F)F)n[nH]2)C1 (centres unmarked) [Compound 188]	–	60	46
O=C(c1cc(C(F)(F)F)n[nH]1)N(CCN1CCOCC1)Cc1ccccc1Cl [Compound 174]	–	100	1490
CO[C@H]1CC[C@H](N(Cc2ccccc2F)C(=O)c2cc(C(F)(F)F)n[nH]2)CC1 [Compound 47]	–	89	435
CCN(CC)CCN(Cc1ccccc1C(C)C)C(=O)c1cc(C(F)(F)F)n[nH]1 [Compound 184]	–	85	1950
O=C(c1cc(Br)n[nH]1)N(CCC1CCSCC1)Cc1ccccc1F [Compound 82]	–	74	1370
O=C(c1cc(Cl)n[nH]1)N(Cc1cccc2[nH]cnc12)CC1CCC1 [Compound 119]	–	100	2930
O=C(c1cc(C(F)(F)F)n[nH]1)N(CCC1CCCCO1)Cc1ccccc1Cl (centres unmarked) [Compound 44]	–	32	50000
O=C(CCSC(=S)NCc1cccnc1)c1cc[nH]c1 [PMA35]	–	30	4340
COc1c(N)cccc1CN(CCN1CCCCCC1)C(=O)c1cc(C(F)(F)F)n[nH]1 [Compound 217]	–	100	230
CO[C@H]1CC[C@H](N(Cc2c(F)cccc2F)C(=O)c2cc(C(F)(F)F)n[nH]2)CC1 [Compound 49]	–	122	914
O=C(c1cc(Br)n[nH]1)N(CCC1CCS(=O)(=O)CC1)Cc1ccccc1F [Compound 83]	–	98	1100
O=C(c1cc(C(F)(F)F)n[nH]1)N(Cc1cccc2[nH]ccc12)CC1COC1 [Compound 12]	–	101	3270
O=C(c1cc(C(F)(F)F)n[nH]1)N(Cc1ccc(O)cc1F)C1CCCCC1 [Compound 139]	–	100	152
O=C(c1cc(C(F)(F)F)n[nH]1)N(CCN1CCC(F)(F)CC1)Cc1ccccc1Cl [Compound 205]	–	100	2050

Structure (SMILES)	AC50 [nM]	Max. Resp. (%)	AC50 [1] [nM]
O=C(CCSC(=S)NCc1cccnc1)c1c[nH]c2ncccc12 [PMA32]	–	182	1000
O=C(CCSC(=S)NCc1cccnc1)c1cccs1 [PMA26]	–	20	> 20000
O=C(c1cc(Br)n[nH]1)N(Cc1ccc(O)cc1Cl)CC1CCC1 [Compound 125]	–	100	35
O=C(c1cc(C(F)(F)F)n[nH]1)N(CCC1CCS(=O)(=O)C1)Cc1ccccc1F (centres unmarked) [Compound 63]	–	87	240
CC[C@](C)(N)C(=O)Oc1ccc(CN(CC2CCC2)C(=O)c2cc(Cl)n[nH]2)c(F)c1 [Compound 115]	–	104	98
CCCN(CC)CCN(Cc1c(N)cccc1Cl)C(=O)c1cc(C(F)(F)F)n[nH]1 [Compound 223]	32	100	–
COc1ccc2nc(Cn3cnc4ccccc43)cc(=O)n2c1 [PP12]	–	–	470
CCCCCN(Cc1ccccc1F)C(=O)c1cc(C(F)(F)F)n[nH]1 [Compound 17]	–	83	138
O=C(c1cc(C(F)(F)F)n[nH]1)N(CCN1CCCC1)Cc1ccc(Cl)cc1Cl [Compound 165]	–	50	45000
Nc1cccc(Cl)c1CN(CCN1CCCC(F)C1)C(=O)c1cc(C(F)(F)F)n[nH]1 (centres unmarked) [Compound 236]	–	73	160
CCN(CC)CCN(Cc1cccc(F)c1Cl)C(=O)c1cc(C(F)(F)F)n[nH]1 [Compound 182]	109	100	–
O=C(c1cc(C(F)(F)F)n[nH]1)N(CCN1CCCC1)Cc1cccc2[nH]ccc12 [Compound 164]	–	100	113
N#Cc1cc(C(=O)N(Cc2ccc(O)cc2F)CC2CCC2)[nH]n1 [Compound 2]	3790	39	–
CC1CCCN(CCN(Cc2cc(N)ccc2Cl)C(=O)c2cc(C(F)(F)F)n[nH]2)C1 (centres unmarked) [Compound 200]	–	100	130
NCc1ccccc1CN(CC1CCC1)C(=O)c1cc(C(F)(F)F)n[nH]1 [Compound 145]	–	–	25500
Cc1cccn2c(=O)cc(Cn3cnc4ccccc43)nc12 [PP13]	–	–	145
CS(=O)(=O)N1CCC(CCN(Cc2ccccc2F)C(=O)c2cc(C(F)(F)F)n[nH]2)CC1 [Compound 99]	–	100	110
COC1CCCN(CCN(Cc2c(N)cccc2Cl)C(=O)c2cc(C(F)(F)F)n[nH]2)C1 (centres unmarked) [Compound 237]	–	100	183
CO[C@H]1CC[C@H](N(Cc2cccc(N)c2)C(=O)c2cc(C(F)(F)F)n[nH]2)CC1 [Compound 54]	–	93	365
CCOCCCN(Cc1ccccc1Cl)C(=O)c1cc(C(F)(F)F)n[nH]1 [Compound 38]	–	47	33000

Structure (SMILES)	AC50 [nM]	Max. Resp. (%)	AC50 [1] [nM]
O=C(c1cc(C(F)(F)F)n[nH]1)N(CCC1CCS(=O)(=O)C1)Cc1cccc([N+](=O)[O-])c1Cl (centres unmarked) [Compound 94]	–	69	2380
O=C(c1cc(C(F)(F)F)n[nH]1)N(CCC1CC[S+]([O-])CC1)Cc1ccccc1Cl (centres unmarked) [Compound 74]	–	95	640
O=C(c1cc(C(F)(F)F)n[nH]1)N(CCC1CCSCC1)Cc1c(F)cccc1F [Compound 84]	–	73	697
O=C(c1cc(C(F)(F)F)n[nH]1)N(CCC1CCNCC1)Cc1ccccc1F [Compound 98]	2050	56	–
CCN(CC)CCN(Cc1ccc(O)cc1F)C(=O)c1cc(C(F)(F)F)n[nH]1 [Compound 143]	–	100	108
Cc1ccc2nc(Cn3cnc4ccccc43)cc(=O)n2c1 [PP3]	–	149	755
O=C(c1cc(C(F)(F)F)n[nH]1)N(CCC1CCOCC1)Cc1ccccc1F [Compound 41]	–	118	1260
O=C(c1cc(C(F)(F)F)n[nH]1)N(CCN1CCS(=O)(=O)CC1)Cc1c(Cl)cccc1Cl [Compound 110]	–	84	1640
COCCN(Cc1ccc(O)cc1F)C(=O)c1cc(C(F)(F)F)n[nH]1 [Compound 142]	–	100	1190
CC1CCCN(CCN(Cc2ccccc2F)C(=O)c2cc(C(F)(F)F)n[nH]2)C1 (centres unmarked) [Compound 201]	–	100	215
COCCCN(Cc1ccccc1F)C(=O)c1cc(C(F)(F)F)n[nH]1 [Compound 23]	–	75	7540
O=C(c1cc(Br)n[nH]1)N(Cc1cccc2[nH]cnc12)CC1CCC1 [Compound 120]	–	100	–
O=C(CCSC(=S)NCc1cccnc1)c1ccc(Cl)cc1 [PMA9]	–	–	> 20000
O=C(c1cc(C(F)(F)F)n[nH]1)N(Cc1ccccc1F)C1CCCCC1 [Compound 153]	–	57	19000
O=C(c1cc(C(F)(F)F)n[nH]1)N(CCC1CCC2(CC1)OCCO2)Cc1ccccc1F [Compound 59]	–	100	494
CC(C)O[C@H]1CC[C@H](N(Cc2ccccc2Cl)C(=O)c2cc(C(F)(F)F)n[nH]2)CC1 [Compound 53]	–	63	2290
O=C(CCSC(=S)NCc1cccnc1)c1ccc(F)cc1 [PMA10]	–	48	9830
Nc1cccc(Cl)c1CN(CCN1CCCCCC1)C(=O)c1cc(C(F)(F)F)n[nH]1 [Compound 218]	–	100	41
